Experiments:
Assay in all cases: Protein kinase inhibition assay
Format in all cases: biochemical
ALK(h) = ALK(h) (Homo sapiens, UniProt Q9UM73); conditions: read-out: percent residual activity of ALK(h)
Experimental: (§1) Certain compounds were tested for activity in protein kinase inhibition assays. All substrates were dissolved and diluted to working stocks in de-ionized water, apart from histone H1 (10× working stock in 20 mM MOPS pH 7.0), PDKtide (10× working stock in 50 mM Tris pH 7.0) ATF2 (which is typically stored at a 20× working stock in 50 mM Tris pH 7.5, 150 mM NaCl, 0.1 mM EGTA, 0.03% Brij-35, 50% glycerol, 1 mM benzamidine, 0.2 mM PMSF and 0.1% R-mercaptoethanol), KKLNRTLSFAEPG (SEQ ID NO:203) and RRRLSFAEPG (SEQ ID NO:204) (50 mM HEPES pH 7.4) and GGEEEEYFELVKKKK (SEQ ID NO:205) (20 mM MOPS pH 7.0). All kinases were pre-diluted to a 10× working concentration prior to addition into the assay. The composition of the dilution buffer for each kinase is detailed below.
(§2) In a final reaction volume of 25 μl, ALK (h) (5-10 mU) is incubated with 8 mM MOPS pH 7.0, 0.2 mM EDTA, 250 μM KKKSPGEYVNIEFG (SEQ ID NO:207), 10 mM MgAcetate and [y -33P-ATP] (specific activity approx. 500 cpm/pmol, concentration as required). The reaction is initiated by the addition of the MgATP mix. After incubation for 40 minutes at room temperature, the reaction is stopped by the addition of 5 μl of a 3% phosphoric acid solution. 10 μl of the reaction is then spotted onto a P30 filtermat and washed three times for 5 minutes in 75 mM phosphoric acid and once in methanol prior to drying and scintillation counting.

Bmx(h) = Bmx(h) (Homo sapiens, UniProt P51813); conditions: read-out: percent residual activity of Bmx(h)
Experimental: as §1
as §2, with “Bmx” for “ALK”, “0.1 mg/ml poly(Glu, Tyr) 4:1,” for “250 μM KKKSPGEYVNIEFG (SEQ ID NO:207),”, “[gamma-33P-ATP]” for “[y -33P-ATP]”, “Filtermat A” for “P30 filtermat”

GSK3α(h) = GSK3α(h) (Homo sapiens, UniProt P49840); conditions: read-out: percent residual activity of GSK3α(h)
Experimental: as §1
In a final reaction volume of 25 μl, GSK3α (h) (5-10 mU) is incubated with 8 mM MOPS pH 7.0, 0.2 mM EDTA, 20 μM […](p)EDEEE (SEQ ID NO:216) (phospho GS2 peptide), 10 mM MgAcetate and [gamma-33P-ATP] (specific activity approx. 500 cpm/pmol, concentration as required). The reaction is initiated by the addition of the MgATP mix. After incubation for 40 minutes at room temperature, the reaction is stopped by the addition of 5 μl of a 3% phosphoric acid solution. […]

PAK4(h) = PAK4(h) (Homo sapiens, UniProt O96013); conditions: read-out: percent residual activity of PAK4(h)
Experimental: as §1
as §2, with “PAK4” for “ALK”, “0.8 mg/ml myelin basic protein,” for “250 μM KKKSPGEYVNIEFG (SEQ ID NO:207),”, “[gamma-33P-ATP]” for “[y -33P-ATP]”

Pyk2(h) = Pyk2(h) (Homo sapiens, UniProt Q14289); conditions: read-out: percent residual activity of Pyk2(h)
Experimental: as §1
as §2, with “Pyk2” for “ALK”, “0.1 mg/ml poly(Glu, Tyr) 4:1,” for “250 μM KKKSPGEYVNIEFG (SEQ ID NO:207),”, “[gamma-33P-ATP]” for “[y -33P-ATP]”, “Filtermat A” for “P30 filtermat”

Yes(h) = Yes(h) (Homo sapiens, UniProt P07947); conditions: read-out: percent residual activity of Yes(h)
Experimental: as §1
as §2, with “Yes” for “ALK”, “0.1 mg/ml poly(Glu, Tyr) 4:1,” for “250 μM KKKSPGEYVNIEFG (SEQ ID NO:207),”, “[gamma-33P-ATP]” for “[y -33P-ATP]”, “Filtermat A” for “P30 filtermat”

Chain of GSK3α(h) (P49840 whole entry): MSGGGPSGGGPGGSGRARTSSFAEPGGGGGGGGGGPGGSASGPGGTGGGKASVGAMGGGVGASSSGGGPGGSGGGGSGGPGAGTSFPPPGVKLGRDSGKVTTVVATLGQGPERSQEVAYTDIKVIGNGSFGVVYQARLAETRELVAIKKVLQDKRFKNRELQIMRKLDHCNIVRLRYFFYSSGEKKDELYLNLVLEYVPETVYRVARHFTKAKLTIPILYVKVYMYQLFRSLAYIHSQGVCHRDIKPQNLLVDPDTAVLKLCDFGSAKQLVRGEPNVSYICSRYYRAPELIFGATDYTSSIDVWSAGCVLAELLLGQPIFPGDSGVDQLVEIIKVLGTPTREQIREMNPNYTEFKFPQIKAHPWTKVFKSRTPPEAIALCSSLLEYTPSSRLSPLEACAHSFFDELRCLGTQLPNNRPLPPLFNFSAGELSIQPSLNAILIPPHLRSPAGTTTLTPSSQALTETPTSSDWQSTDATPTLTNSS
Chain of Yes(h) (P07947 whole entry): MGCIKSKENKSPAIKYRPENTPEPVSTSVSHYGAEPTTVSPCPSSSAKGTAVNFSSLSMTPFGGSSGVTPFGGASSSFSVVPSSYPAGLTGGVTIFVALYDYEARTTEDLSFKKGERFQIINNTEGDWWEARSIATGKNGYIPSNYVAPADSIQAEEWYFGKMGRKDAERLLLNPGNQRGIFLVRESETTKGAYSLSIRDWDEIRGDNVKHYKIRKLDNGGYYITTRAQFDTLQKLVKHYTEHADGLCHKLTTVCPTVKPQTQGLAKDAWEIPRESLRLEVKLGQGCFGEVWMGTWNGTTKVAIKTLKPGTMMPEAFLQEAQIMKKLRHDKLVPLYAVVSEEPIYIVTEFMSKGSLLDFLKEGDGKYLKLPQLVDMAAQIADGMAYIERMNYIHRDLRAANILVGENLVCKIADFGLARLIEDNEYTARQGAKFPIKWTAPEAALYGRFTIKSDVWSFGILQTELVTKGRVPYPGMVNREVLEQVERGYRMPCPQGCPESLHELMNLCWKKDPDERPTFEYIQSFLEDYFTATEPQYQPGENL
Chain of ALK(h) (Q9UM73 19-1620): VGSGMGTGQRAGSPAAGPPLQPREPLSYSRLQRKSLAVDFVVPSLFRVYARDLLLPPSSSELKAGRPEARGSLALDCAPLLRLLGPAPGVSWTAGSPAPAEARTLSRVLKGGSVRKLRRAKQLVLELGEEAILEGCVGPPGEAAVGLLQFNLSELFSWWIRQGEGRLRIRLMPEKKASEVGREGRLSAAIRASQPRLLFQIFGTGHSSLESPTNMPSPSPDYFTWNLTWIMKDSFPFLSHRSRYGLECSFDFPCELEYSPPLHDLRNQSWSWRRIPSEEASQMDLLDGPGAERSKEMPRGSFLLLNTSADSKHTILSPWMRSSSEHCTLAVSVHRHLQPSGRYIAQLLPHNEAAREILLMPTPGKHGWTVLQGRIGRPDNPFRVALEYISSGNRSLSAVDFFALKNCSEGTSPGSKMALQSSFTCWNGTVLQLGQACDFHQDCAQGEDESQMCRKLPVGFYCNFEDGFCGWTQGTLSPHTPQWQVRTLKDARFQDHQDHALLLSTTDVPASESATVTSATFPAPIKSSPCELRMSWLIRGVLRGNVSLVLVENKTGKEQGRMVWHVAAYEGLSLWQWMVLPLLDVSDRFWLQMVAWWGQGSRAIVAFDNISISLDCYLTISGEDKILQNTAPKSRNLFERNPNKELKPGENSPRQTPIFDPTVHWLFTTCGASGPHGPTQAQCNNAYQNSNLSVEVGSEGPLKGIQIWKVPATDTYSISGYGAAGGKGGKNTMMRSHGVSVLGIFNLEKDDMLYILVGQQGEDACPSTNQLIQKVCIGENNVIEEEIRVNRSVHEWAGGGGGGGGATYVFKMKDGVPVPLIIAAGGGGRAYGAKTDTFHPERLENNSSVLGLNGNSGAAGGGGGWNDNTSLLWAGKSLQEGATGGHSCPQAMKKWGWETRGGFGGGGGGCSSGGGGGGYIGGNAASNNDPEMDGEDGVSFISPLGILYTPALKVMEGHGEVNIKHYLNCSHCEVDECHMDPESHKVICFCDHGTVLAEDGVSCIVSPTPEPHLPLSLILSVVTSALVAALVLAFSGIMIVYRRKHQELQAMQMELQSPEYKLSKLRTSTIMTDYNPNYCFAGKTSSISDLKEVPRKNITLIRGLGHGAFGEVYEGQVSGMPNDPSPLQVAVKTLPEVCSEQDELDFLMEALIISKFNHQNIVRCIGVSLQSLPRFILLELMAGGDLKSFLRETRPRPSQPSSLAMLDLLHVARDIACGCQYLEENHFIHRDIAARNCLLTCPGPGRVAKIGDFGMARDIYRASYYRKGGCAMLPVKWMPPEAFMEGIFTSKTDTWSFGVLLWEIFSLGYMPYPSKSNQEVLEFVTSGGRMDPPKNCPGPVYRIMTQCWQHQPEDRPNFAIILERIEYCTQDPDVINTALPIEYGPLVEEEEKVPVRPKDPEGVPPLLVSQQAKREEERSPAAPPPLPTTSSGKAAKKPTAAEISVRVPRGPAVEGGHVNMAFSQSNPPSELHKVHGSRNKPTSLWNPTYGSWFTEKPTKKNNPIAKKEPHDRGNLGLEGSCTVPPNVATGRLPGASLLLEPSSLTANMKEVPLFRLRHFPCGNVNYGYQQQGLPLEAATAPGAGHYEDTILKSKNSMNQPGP
Chain of Bmx(h) (P51813 whole entry): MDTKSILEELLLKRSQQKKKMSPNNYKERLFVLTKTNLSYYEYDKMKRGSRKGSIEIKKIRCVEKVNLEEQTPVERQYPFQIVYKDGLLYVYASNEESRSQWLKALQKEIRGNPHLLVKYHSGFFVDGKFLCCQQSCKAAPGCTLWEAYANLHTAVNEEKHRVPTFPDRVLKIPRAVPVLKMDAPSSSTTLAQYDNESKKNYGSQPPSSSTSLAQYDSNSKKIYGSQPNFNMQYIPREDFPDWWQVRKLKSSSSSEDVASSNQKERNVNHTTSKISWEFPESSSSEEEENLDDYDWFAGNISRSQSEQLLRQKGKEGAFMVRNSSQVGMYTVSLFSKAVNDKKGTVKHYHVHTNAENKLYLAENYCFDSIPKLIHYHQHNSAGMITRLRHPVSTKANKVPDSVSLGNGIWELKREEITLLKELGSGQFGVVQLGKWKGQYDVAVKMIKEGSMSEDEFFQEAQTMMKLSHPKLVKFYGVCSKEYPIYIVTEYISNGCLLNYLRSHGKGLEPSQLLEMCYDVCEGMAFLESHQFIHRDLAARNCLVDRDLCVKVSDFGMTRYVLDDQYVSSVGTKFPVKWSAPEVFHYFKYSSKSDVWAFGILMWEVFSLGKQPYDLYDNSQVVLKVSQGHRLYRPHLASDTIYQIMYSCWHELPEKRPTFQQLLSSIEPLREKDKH
Chain of Pyk2(h) (Q14289 whole entry): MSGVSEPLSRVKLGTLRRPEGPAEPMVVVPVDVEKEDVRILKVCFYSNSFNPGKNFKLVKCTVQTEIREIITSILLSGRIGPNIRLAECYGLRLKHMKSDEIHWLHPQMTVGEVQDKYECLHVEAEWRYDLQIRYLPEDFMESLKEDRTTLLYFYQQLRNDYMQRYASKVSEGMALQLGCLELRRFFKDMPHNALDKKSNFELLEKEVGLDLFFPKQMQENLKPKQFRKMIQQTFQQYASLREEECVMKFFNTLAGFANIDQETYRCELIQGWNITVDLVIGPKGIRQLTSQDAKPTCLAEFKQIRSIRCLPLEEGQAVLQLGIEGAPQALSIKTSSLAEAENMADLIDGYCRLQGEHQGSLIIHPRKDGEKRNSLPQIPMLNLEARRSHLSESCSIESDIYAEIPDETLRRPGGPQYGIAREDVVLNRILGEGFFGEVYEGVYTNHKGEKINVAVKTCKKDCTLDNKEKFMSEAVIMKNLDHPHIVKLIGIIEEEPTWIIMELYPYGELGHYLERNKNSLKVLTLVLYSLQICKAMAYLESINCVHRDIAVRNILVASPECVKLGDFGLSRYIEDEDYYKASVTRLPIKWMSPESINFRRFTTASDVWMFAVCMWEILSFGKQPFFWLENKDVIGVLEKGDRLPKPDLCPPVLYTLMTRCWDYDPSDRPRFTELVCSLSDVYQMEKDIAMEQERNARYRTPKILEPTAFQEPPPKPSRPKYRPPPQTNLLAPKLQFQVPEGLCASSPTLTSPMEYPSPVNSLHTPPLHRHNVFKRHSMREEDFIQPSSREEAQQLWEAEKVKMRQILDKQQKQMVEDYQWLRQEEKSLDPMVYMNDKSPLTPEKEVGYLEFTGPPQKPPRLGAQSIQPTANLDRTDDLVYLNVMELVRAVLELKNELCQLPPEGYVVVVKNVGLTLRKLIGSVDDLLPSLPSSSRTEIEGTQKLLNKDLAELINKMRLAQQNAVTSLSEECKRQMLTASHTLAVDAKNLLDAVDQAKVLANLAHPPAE
Chain of PAK4(h) (O96013 whole entry): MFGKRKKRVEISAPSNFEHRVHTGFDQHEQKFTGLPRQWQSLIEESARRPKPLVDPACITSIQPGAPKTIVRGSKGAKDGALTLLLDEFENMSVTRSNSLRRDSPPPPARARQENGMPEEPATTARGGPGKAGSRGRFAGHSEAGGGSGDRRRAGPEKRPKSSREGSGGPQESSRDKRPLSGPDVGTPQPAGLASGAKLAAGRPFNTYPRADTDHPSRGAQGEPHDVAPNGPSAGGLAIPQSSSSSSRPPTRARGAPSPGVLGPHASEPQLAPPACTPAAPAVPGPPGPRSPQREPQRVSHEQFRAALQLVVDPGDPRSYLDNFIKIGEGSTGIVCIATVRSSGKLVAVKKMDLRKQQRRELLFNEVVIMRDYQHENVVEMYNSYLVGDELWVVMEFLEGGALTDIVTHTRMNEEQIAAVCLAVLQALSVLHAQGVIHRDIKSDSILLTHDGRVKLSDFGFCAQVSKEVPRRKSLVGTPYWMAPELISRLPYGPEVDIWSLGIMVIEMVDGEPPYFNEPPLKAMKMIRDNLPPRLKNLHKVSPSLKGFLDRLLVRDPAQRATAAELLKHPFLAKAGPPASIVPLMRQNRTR

remaining activity at 2.5 µM (ALK(h)) [%] | remaining activity at 2.5 µM (Bmx(h)) [%] | remaining activity at 2.5 µM (GSK3α(h)) [%] | remaining activity at 2.5 µM (PAK4(h)) [%] | remaining activity at 2.5 µM (Pyk2(h)) [%] | remaining activity at 2.5 µM (Yes(h)) [%] | SMILES
69 | 68 | 101 | 99 | 95 | 81 | CN1CCCC1CCNC(=O)c1cn2c3c(c(N4CCC(c5cnccn5)C4)c(F)cc3c1=O)Oc1cc3ccccc3cc1-2 (stereo not drawn) [Compound A-1]
97 | 105 | 89 | 96 | 105 | 96 | CC(=O)N1CCN(c2ccc3c(=O)c(C(=O)NCCN4CCCC4)c4n(C)c5ccccc5n4c3n2)CC1 [Compound B-1]

Source: patent US20070117770A1, “Human ribosomal DNA (rDNA) and ribosomal RNA (rRNA) nucleic acids and uses thereof” (Cylene Pharmaceuticals, Inc., priority 2005, published 2007)
